Assay results published in paper PMC9030223, “MBP-11901 Inhibits Tumor Growth of Hepatocellular Carcinoma through Multitargeted Inhibition of Receptor Tyrosine Kinases” (Cancers, 2022).
Read-outs that look alike come from different tables or passages of the source.

Key:
[1] = system: HepG2 cells; assay: Colony formation assay; type: cell-based, human
Experimental: HepG2 cells were seeded in a 6-well plate at a density of 2 × 10^4 cells/well and incubated for 24 h. Cells were treated with MBP-11901 and sorafenib for 2 h and media was changed with fresh one. Cells were incubated for 8 d and the medium was replaced once every 2–3 d. The medium was carefully removed, cells were washed with PBS, and fixed with 100% methanol for 30 min. After removing methanol, cells were stained with 0.5% (w/v) crystal violet for 30 min, and washed with tap water. The plate was dried at 25 °C and images were captured under a microscope (Nikon Eclipse Ts2, Tokyo, Japan). The stained area was automatically measured using ImageJ. This experiment was independently performed 3 times. The area of the colony was calculated as a percentage of the total area of the well.

[2] = system: Huh-7 xenograft tumor; assay: Huh-7 subcutaneous xenograft; type: in vivo, mouse; conditions: Huh-7 subcutaneously implanted model
Source text: (§1) We further verified the effectiveness of MBP-11901 by constructing a mouse model in which Hep3B and Huh-7 were subcutaneously transplanted in addition to the human liver cancer cell line HepG2. In the case of Hep3B, the administration was initiated at a tumor volume of about 300 mm^3, once every 2 d, and the experiment was terminated after a total of 12 administrations (Figure S5). […] In contrast, tumors had completely disappeared in 1 out of 6 animals in the MBP-11901 group; 1 had only a trace of a tumor measuring approximately 30 mm^3, whereas the average tumor volume in the 6 animals was approximately 100 mm^3. […] Unlike Nexavar®, there were no side-effects relating to drug resistance or rapid tumor growth.

[3] = target: T1, FLT3 (Homo sapiens, UniProt P36888); assay: KINOMEscan competition binding / KdELECT
T1 construct: purchased Eurofins DiscoverX Corporation
Experimental: (§2) The profiling of MBP-11901 against a panel of 468 kinases was performed by DiscoverX using KINOMEscan technology, an active-site-dependent competition-binding assay (Eurofins DiscoverX Corporation, San Diego, CA, USA). Binding constants (Kd) were calculated by DiscoverX using KdELECT technology, a widely used assay for comparing selectivity across the kinome. The DiscoverX platform reports the thermodynamic Kd to facilitate direct comparison of inhibitor affinity across the kinome, independent of ATP concentration.

[4] = target: T2, MAP4K2 (Homo sapiens, UniProt Q12851); assay: KINOMEscan competition binding / KdELECT
T2 construct: purchased Eurofins DiscoverX Corporation
Experimental: as §2

[5] = target: T3, MEK5 (Homo sapiens, UniProt Q13163); assay: KINOMEscan competition binding / KdELECT
T3 construct: purchased Eurofins DiscoverX Corporation
Experimental: as §2

[6] = target: T4, VEGFR2 (Homo sapiens, UniProt P35968); assay: KINOMEscan competition binding / KdELECT
T4 construct: purchased Eurofins DiscoverX Corporation
Experimental: as §2

[7] = target: T5, PDGFRβ (Homo sapiens, UniProt P09619); assay: KINOMEscan competition binding / KdELECT
T5 construct: purchased Eurofins DiscoverX Corporation
Experimental: as §2

[8] = system: Hep3B xenograft tumor; assay: Hep3B subcutaneous xenograft; type: in vivo, mouse; conditions: once every 2 d, 12 administrations
Source text: as §1

[9] = system: HepG2 xenograft tumor; conditions: for Tumor growth inhibition rate (%): 42 d (calculated on day 41); for Body weight loss rate (%): day 41
[10] = system: phosphorylation of FLT3, VEGFR2, c-KIT, PDGFRβ and downstream signals in HepG2 cells; assay: Western blot of kinase phosphorylation; type: cell-based, human; conditions: HepG2, exposure 10 to 120 min, concentration-dependent
Experimental: HepG2 cells were seeded in a 60 mm^2 culture dish at a density of 1.5 × 10^6 cells/dish and incubated for 24 h. […] Cells were harvested and protein extraction and Western blotting methods were performed as previously described. Membranes were incubated using the following diluted primary antibodies; PARP (1:1000 dilution), caspase-3 (1:1000 dilution), cleaved caspase-3 (1:1000 dilution), pFLT3 (1:500 dilution), Ras (1:1000 dilution), pc-Raf (1:1000 dilution), pMEK1/2 (1:1000 dilution), pERK1/2 (1:1000 dilution), pAKT (1:1000 dilution), pmTOR (1:1000 dilution), pVEGFR2 (1:1000 dilution), pPDGFR β (1:2000 dilution), and β-actin (1:1000 dilution) in Tris-HCl-based buffer containing 0.2% Tween-20 (T1027, Biosesang, Seongnam, Korea) (TBS-T; pH 7.5). Membranes were then incubated with horseradish-conjugated secondary antibodies (1:5000, Cell Signaling Technologies, Beverly, MA, USA) for 1 h at 25 °C. After washing with TBS-T, immunoreactive bands were visualized using the chemiluminescence western imaging system (Supernova-Q1800TM, Centronics, Daejeon, Korea). Band intensities were measured using ImageJ (Version 1.50i; US National Institutes of Health, Bethesda, MD, USA) and were normalized to β-actin.

[11] = 10000 nM, lower = stronger binding, read-out: % Control

T3 sequence (Q13163 whole entry): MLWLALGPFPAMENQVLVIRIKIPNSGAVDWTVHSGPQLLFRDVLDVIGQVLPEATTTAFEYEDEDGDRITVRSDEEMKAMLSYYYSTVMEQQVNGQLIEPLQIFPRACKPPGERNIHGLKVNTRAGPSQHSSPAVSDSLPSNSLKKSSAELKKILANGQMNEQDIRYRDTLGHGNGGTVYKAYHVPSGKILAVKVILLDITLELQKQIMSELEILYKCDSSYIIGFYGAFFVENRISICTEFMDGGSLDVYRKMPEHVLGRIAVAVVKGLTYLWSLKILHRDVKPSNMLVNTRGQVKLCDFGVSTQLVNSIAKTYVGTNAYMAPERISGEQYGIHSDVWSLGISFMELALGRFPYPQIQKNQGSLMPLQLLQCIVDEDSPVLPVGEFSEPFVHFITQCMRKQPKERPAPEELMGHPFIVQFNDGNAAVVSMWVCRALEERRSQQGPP
T2 sequence (Q12851 whole entry): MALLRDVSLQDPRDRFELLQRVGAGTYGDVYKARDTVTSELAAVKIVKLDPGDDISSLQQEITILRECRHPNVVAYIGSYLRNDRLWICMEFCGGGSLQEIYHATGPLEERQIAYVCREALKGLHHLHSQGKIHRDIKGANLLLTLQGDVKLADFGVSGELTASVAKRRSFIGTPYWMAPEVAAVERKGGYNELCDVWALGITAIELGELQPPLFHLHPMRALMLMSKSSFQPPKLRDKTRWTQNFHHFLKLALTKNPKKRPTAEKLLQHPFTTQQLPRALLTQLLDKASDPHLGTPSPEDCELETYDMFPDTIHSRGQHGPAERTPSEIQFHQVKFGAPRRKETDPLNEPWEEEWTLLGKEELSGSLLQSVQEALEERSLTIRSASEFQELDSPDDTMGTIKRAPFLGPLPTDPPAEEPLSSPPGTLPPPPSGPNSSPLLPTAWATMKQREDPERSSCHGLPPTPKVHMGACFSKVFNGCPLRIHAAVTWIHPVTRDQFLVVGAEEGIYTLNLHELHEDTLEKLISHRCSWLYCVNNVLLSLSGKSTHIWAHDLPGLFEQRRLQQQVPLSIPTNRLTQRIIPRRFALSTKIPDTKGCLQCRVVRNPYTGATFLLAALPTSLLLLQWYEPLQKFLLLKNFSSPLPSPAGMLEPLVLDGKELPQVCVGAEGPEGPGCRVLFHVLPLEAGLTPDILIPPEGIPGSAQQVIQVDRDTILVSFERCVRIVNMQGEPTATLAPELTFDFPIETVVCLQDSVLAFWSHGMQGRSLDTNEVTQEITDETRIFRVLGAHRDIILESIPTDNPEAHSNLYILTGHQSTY
T5 sequence (P09619 33-1106): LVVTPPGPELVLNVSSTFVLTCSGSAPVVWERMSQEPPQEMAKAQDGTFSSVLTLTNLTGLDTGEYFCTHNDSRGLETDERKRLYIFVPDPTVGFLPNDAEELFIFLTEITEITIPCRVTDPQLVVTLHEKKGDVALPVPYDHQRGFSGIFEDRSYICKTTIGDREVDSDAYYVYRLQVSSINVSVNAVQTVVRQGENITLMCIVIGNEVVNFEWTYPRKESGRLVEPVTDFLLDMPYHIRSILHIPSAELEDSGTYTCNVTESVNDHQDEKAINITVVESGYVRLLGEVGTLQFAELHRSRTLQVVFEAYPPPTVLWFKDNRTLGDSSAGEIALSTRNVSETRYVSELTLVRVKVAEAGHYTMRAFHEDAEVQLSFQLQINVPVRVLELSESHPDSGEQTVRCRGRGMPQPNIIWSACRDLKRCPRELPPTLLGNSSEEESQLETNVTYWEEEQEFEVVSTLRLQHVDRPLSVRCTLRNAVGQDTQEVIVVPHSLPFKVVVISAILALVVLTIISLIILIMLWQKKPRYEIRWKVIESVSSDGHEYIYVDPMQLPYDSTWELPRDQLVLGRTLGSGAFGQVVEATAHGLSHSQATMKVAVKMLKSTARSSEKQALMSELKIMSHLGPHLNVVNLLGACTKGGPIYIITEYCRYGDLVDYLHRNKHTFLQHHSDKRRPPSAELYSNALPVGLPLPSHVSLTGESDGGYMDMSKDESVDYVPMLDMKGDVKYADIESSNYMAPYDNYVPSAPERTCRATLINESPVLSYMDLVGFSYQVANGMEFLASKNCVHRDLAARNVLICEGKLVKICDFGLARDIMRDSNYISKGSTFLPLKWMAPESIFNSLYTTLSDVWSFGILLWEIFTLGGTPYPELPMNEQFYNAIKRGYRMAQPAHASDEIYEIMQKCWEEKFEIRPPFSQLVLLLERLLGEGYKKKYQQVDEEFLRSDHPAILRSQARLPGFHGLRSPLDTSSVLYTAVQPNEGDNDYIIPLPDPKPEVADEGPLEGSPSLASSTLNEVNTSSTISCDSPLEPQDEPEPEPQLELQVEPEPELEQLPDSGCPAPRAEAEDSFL
T4 sequence (P35968 20-1356): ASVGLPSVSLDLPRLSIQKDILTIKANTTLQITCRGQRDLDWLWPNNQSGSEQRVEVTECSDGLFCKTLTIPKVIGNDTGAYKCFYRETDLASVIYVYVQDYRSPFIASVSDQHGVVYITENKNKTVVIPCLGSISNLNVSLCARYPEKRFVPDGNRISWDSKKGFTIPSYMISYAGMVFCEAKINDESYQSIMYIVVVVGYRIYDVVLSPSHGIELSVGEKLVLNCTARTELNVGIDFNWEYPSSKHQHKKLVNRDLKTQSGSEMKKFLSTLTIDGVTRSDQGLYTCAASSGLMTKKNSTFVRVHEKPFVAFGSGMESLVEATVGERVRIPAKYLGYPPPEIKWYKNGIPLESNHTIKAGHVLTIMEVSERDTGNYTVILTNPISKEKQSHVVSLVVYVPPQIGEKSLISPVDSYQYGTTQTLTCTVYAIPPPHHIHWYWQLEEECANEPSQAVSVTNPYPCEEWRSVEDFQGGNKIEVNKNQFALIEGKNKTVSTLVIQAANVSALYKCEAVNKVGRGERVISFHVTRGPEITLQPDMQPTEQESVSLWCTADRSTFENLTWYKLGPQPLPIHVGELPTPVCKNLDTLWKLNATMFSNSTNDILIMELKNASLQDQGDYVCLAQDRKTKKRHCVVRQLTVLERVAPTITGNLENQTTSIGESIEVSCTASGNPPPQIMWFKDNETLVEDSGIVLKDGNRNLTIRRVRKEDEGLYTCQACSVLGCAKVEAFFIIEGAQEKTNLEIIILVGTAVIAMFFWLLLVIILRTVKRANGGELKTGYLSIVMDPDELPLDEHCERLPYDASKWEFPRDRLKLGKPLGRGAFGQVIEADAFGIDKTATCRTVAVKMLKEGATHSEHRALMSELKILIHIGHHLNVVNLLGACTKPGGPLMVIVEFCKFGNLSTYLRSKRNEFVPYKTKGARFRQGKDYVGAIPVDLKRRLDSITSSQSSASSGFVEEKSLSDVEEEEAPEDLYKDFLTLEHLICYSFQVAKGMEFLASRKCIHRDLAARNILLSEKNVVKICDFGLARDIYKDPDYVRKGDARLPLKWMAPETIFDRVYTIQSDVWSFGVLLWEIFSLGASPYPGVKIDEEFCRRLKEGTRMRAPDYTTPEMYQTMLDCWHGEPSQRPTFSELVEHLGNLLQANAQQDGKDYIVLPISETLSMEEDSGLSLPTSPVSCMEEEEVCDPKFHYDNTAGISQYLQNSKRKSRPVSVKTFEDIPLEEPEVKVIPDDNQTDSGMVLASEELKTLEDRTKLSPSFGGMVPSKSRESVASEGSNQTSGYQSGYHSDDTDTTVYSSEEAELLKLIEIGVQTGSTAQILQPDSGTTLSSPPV
T1 sequence (P36888 27-993): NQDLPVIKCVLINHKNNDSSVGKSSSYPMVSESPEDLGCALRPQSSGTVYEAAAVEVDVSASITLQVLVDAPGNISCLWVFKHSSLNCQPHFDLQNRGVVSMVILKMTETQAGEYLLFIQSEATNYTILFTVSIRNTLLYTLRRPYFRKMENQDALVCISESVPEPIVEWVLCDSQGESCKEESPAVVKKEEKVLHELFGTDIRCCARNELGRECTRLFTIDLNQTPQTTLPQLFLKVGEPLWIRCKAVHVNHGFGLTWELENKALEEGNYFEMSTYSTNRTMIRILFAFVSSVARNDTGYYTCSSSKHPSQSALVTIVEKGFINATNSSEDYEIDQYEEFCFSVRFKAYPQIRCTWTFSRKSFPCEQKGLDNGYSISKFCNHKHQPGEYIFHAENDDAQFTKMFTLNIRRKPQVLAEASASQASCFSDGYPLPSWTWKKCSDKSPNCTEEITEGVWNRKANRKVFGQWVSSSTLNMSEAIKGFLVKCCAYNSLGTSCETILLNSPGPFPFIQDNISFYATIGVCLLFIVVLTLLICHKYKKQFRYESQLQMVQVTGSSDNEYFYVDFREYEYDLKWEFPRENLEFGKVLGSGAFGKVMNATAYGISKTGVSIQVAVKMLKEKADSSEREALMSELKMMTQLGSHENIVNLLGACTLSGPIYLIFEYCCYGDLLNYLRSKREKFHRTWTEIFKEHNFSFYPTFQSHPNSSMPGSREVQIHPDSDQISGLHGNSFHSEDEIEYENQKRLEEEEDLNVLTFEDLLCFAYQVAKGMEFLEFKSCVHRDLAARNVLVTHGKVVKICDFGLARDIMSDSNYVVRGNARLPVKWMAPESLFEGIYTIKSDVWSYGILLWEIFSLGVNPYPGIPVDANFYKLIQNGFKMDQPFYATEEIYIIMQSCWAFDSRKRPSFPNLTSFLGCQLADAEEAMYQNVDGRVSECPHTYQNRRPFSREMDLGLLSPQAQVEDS

SMILES: NCC(N)C(=O)Nc1ccc(-c2nc3ccccc3s2)cc1 (centres unmarked) [MBP-11901]
- colony formation ([1]; HepG2, 5 μM): significant reduction
- colony growth ([1]; HepG2, high concentrations, compared with sorafenib): almost no colony growth was observed
- tumor disappearance [2]: did not result in tumor disappearance
- tumor weight [2]: significantly reduced
- remaining binding at 10 µM [3, 11]: 16%
- Kd ([3]; FLT3, mean ± S.D. (n = 2)): 0.295 ± 0.005 µM
- remaining binding at 10 µM [4, 11]: 8.6%
- Kd ([4]; MAP4K2, mean ± S.D. (n = 2)): 1.1 µM
- remaining binding at 10 µM [5, 11]: 3.3%
- Kd ([5]; MEK5): > 30 µM
- remaining binding at 10 µM [6, 11]: 30%
- Kd ([6]; VEGFR2, mean ± S.D. (n = 2)): 3.55 ± 0.25 µM
- remaining binding at 10 µM [7, 11]: 33%
- Kd ([7]; PDGFRβ, mean ± S.D. (n = 2)): 4 ± 0.22 µM
- animals in which tumors had completely disappeared [8]: 1 out of 6
- average tumor volume ([8]; start about 300 mm^3, saline approx. 1400 mm^3): approximately 100 mm^3
- Toxic deaths/total ([9]; 82 mg/kg oral 1T/2D, 42 d): 0/6
- Tumor growth inhibition rate (%) ([9]; 82 mg/kg oral 1T/2D): 99.82 ± 0.33%
- Body weight loss rate (%) ([9]; 82 mg/kg oral 1T/2D): 1.85 ± 3.70%
- Toxic deaths/total ([9]; 82 mg/kg oral 1T/3D, 42 d): 0/6
- Tumor growth inhibition rate (%) ([9]; 82 mg/kg oral 1T/3D): 99.51 ± 0.81%
- Body weight loss rate (%) ([9]; 82 mg/kg oral 1T/3D): −0.43 ± 3.76 %
- Toxic deaths/total ([9]; 82 mg/kg oral 1T/4D, 42 d): 0/6
- Tumor growth inhibition rate (%) ([9]; 82 mg/kg oral 1T/4D): 99.48 ± 0.60%
- Body weight loss rate (%) ([9]; 82 mg/kg oral 1T/4D): −4.29 ± 0.59 %
- histological analysis of the liver and kidney ([9]; 42 d): no apparent toxicity
- animals in which tumors had disappeared, out of a total of 6 ([9]; all MBP-11901 groups, after 42 d): 3–4
- GPT values ([9]; serum, MBP-11901 1T/3D and 1T/4D groups): significantly outside the normal range
- kinase phosphorylation [10]: inhibited
